Experiment in all cases: inhibition of tumour cell growth, NCI panel, 48 h
For assay [1], the system named is Malme-3M.
For assay [2], the system named is SF-539.
The test system of assay [3] is T47D.
The test system of assay [4] is NCI-H23.
For assay [5], the system named is ACHN.
In assay [6] the test system is EKVX.
Assay [7] concerns MOLT-4.
Assay [8] concerns HCT-15.
The subject of assay [9] is UACC-257.
Assay [10] concerns SF-268.
Assay [11] concerns MDA-N.
Assay [12] has as its system UO-31.
The subject of assay [13] is U-251.
The subject of assay [14] is MCF7.
In assay [15] the test system is PC-3.
For assay [16], the system named is UACC-62.
Assay [17] concerns SW-620.
The test system of assay [18] is RPMI-8226.
The subject of assay [19] is Hs-578T.
Assay [20] concerns SK-MEL-2.

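In this assay, cells in 96-well plates receive the compound at five concentrations for 48 hours. Endpoints are linearly interpolated between the surrounding concentrations. Abbreviation: GI50, concentration required for 50% inhibition of growth.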 The source made the active and inactive calls. Rule as the data show it: active = GI50 up to about 1.1 µM and inactive = higher. Bounds are passed on as bounds.

Consider `O=C1CSC(c2cccc(Cl)c2)N1c1ccc(-c2ccc(-n3c(-c4ccccc4)nc4ccccc4c3=O)cc2)cc1` (stereo not given), for which the GI50 in assay [1] is 46 µM (inactive); in assay [2], 72.3 µM (inactive); in [3], 24.3 µM (inactive); in [4] it was 58.5 µM (inactive); in assay [5], 45.8 µM (inactive); in assay [6], 59 µM (inactive). Besides, the GI50 is 20.1 µM (inactive) in [7]; 33.5 µM in assay [8]; 80.5 µM (inactive) in assay [9]; 54.1 µM (inactive) in [10]; 47.9 µM (inactive) in [11]; 21.6 µM (inactive) in assay [12]. Moreover, the GI50 in assay [13] was 52.1 µM (inactive); in [14] it was 30.8 µM (inactive); in assay [15], 29.8 µM (inactive); in assay [16] it was 31.4 µM (inactive); in [17], > 100 µM (inactive); in assay [18], 42.8 µM (inactive). In addition, the figures for the GI50 in assay [19] and in assay [20] were > 100 µM (inactive) and 25.2 µM (inactive), respectively.
Regarding `CO[C@@H]1[C@@H](OC2OC(C)C(OC3CC(C)(O)C(OC(=O)CC(C)C)C(C)O3)C(N(C)C)C2O)[C@@H](CC=O)C[C@@H](C)C(=O)/C=C/C2O[C@H]2C[C@@H](C)OC(=O)C[C@H]1OC(C)=O` (stereo not given in full), the GI50 in [1] is 14 µM (inactive); in assay [2], 19.6 µM (inactive); in assay [3] it was 18.7 µM (inactive); in [4], 18.9 µM (inactive); in assay [5], 18.7 µM (inactive); in [6], 22.4 µM (inactive). Moreover, the GI50 in [7] was 9.57 µM (inactive); in [8], 18.6 µM; in assay [9], 17.2 µM (inactive); in [10], 79.1 µM (inactive); in assay [11], 15.2 µM (inactive); in [12], 20.7 µM (inactive). Further, the GI50 was 16.4 µM (inactive) in [13]; 16.3 µM (inactive) in assay [14]; 15.5 µM (inactive) in assay [15]; 21.4 µM (inactive) in [16]; 17.5 µM (inactive) in [17]; 17.7 µM (inactive) in assay [18]. For the same compound, the GI50 in assay [19] is 37.4 µM (inactive); in assay [20], 18.8 µM (inactive).
Turning to `COc1ccc2c(c1)CCc1cc(OC)ccc1/[N+]([O-])=[N+]\2[O-]`, the GI50 was 19.5 µM (inactive) in assay [1]; 21.2 µM (inactive) in assay [2]; 17 µM (inactive) in assay [3]; 23.1 µM (inactive) in [4]; 10.8 µM (inactive) in assay [5]; 20.8 µM (inactive) in [6]. The GI50 in [7] was 3.67 µM (inactive); in assay [8], 15.6 µM; in assay [9], 18.3 µM (inactive); in assay [10], 16.7 µM (inactive); in [11], 14.3 µM (inactive); in assay [12], 9.08 µM (inactive). The GI50 in assay [13] is 17.6 µM (inactive); in [14], 9.29 µM (inactive); in assay [15], 14.8 µM (inactive); in assay [16], 15.8 µM (inactive); in assay [17] it was 7.1 µM (inactive); in [18] it was 4.86 µM (inactive). In addition, the results for the GI50 in assay [19] and in [20] were 25.1 µM (inactive) and 20.9 µM (inactive), respectively.
With `CCOC(=O)C(Cc1cc(OC)c(CC(C(=O)OCC)C(=O)OCC)cc1OC)C(=O)OCC`, the GI50 in [1] was > 100 µM (inactive); in [2] it was 29.2 µM (inactive); in assay [3], > 100 µM (inactive); in [4], > 100 µM (inactive); in assay [5] it was > 100 µM (inactive); in assay [6], > 100 µM (inactive). Moreover, the GI50 in assay [7] was > 100 µM (inactive); in [8], > 100 µM; in assay [9], > 100 µM (inactive); in assay [10] it was > 94.4 µM (inactive); in assay [11], > 100 µM (inactive); in assay [12] it was 44 µM (inactive). The GI50 in assay [13] was > 66.4 µM (inactive); in assay [14] it was > 100 µM (inactive); in [15], > 100 µM (inactive); in assay [16] it was > 100 µM (inactive); in assay [17], > 100 µM (inactive); in assay [18], > 100 µM (inactive). The GI50 in assay [19] and in assay [20] was > 100 µM (inactive) in each case.
Take `C=C1C(=O)C23CC1C[C@H](OC(C)=O)[C@H]2C1(C)C(OC(C)=O)C[C@H](O)C(C)(C)[C@H]1C(=O)[C@@H]3OC(C)=O` (stereo not given in full): the GI50 was 2.17 µM (inactive) in [1]; 2.69 µM (inactive) in [2]; 2.72 µM (inactive) in assay [3]; 3.58 µM (inactive) in assay [4]; 4.98 µM (inactive) in assay [5]; 6.84 µM (inactive) in [6]. The GI50 in assay [7] was 1.21 µM (inactive); in [8], 4.37 µM; in assay [9], 2.43 µM (inactive); in assay [10], 9.08 µM (inactive); in assay [11], 1.69 µM (inactive); in assay [12], 4.93 µM (inactive). In addition, the GI50 is 15 µM (inactive) in [13]; 3.93 µM (inactive) in [14]; 10.3 µM (inactive) in [15]; 4.86 µM (inactive) in assay [16]; 1.71 µM (inactive) in assay [17]; 1.33 µM (inactive) in assay [18]. In addition, the values for the GI50 in [19] and in [20] were 3.98 µM (inactive) and 12.3 µM (inactive), respectively.
Turning to `O=C(CCc1ccc(O)c(O)c1)NCCc1ccccc1`, the GI50 was > 100 µM (inactive) in assay [1]; > 47.8 µM (inactive) in assay [2]; 34.4 µM (inactive) in [3]; 35.2 µM (inactive) in [4]; 22 µM (inactive) in [5]; > 94.2 µM (inactive) in assay [6]. In addition, the GI50 in [7] was 12.7 µM (inactive); in [8], 15.5 µM; in assay [9], > 79.4 µM (inactive); in [10], > 32.4 µM (inactive); in assay [11], 19 µM (inactive); in assay [12], 10.2 µM (inactive). Further, the GI50 in assay [13] was 75 µM (inactive); in assay [14], 15.1 µM (inactive); in assay [15] it was > 37.2 µM (inactive); in assay [16], 24.5 µM (inactive); in assay [17], > 100 µM (inactive); in [18], 6.1 µM (inactive). The GI50 is > 82.6 µM (inactive) in assay [19] and 32.7 µM (inactive) in assay [20].

For the origin of these results see ChEMBL document CHEMBL1201862, “PubChem BioAssay data set” (2004).
